According to ChEMBL document CHEMBL3407463 (Eur J Med Chem, 2014):
Calls of active or inactive are those of the source. No cut-off for these calls is given here.

What was measured:
MCF7 [1] = assay: Cytotoxicity against human placental microsome aromatase expressing human MCF7 cells at 0.01 to 15 uM by MTT assay in presence of testosterone; assay type: functional, cell-based; details: TDE = time-dependent effect
MCF7 [2] = assay: Cytotoxicity against human placental microsome aromatase expressing human MCF7 cells assessed as reduction in cell viability up to 5 uM after 3 to 6 days by MTT assay in presence of estradiol; assay type: functional, cell-based
MCF7 [3] = assay: Cytotoxicity against human placental microsome aromatase expressing human MCF7 cells at 5 to 15 uM after 2 to 3 days by LDH assay in presence of testosterone; assay type: functional, cell-based
Aromatase [4] = target: T1, Aromatase (Homo sapiens, UniProt P11511); assay: Inhibition of human […] aromatase expressed in human MCF7 cells using [1beta-3H] androstenedione as substrate at 10 uM after 1 hr by liquid scintillation counting; assay type: cell-based
T1 sequence (P11511 whole entry): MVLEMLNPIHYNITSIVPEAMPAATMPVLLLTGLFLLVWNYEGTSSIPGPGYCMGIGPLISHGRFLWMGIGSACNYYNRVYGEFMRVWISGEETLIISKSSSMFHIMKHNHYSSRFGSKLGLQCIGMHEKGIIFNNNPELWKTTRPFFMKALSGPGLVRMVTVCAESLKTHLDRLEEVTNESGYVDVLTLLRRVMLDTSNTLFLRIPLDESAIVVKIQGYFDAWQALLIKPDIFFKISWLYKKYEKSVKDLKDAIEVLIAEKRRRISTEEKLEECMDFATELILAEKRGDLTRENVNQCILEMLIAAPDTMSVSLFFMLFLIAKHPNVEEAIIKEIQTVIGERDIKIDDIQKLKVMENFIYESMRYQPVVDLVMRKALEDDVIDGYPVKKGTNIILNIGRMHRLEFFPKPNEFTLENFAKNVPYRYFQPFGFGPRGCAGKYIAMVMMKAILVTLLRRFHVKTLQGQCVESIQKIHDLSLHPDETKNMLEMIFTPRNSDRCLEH

Aromatase [5] = target: T1, Aromatase; assay: Inhibition of human placental microsome aromatase using [1beta-3H] androstenedione as substrate after 15 mins by liquid scintillation counting
Aromatase [6] = target: T1, Aromatase; assay: Inhibition of human placental microsome aromatase using [1beta-3H] androstenedione as substrate at 2 uM after 15 mins by liquid scintillation counting; details: 0.25 h
MCF7 [7] = assay: Cytotoxicity against human placental microsome aromatase expressing human MCF7 cells after 2 to 6 days by MTT assay in presence of testosterone; assay type: functional, cell-based
Aromatase [8] = target: T1, Aromatase; assay: Inhibition of human […] aromatase expressed in human MCF7 cells using [1beta-3H] androstenedione as substrate after 1 hr by liquid scintillation counting; assay type: cell-based
MCF7 [9] = assay: Cytotoxicity against human placental microsome aromatase expressing human MCF7 cells assessed as reduction in cell viability at 1 to 2.5 uM after 2 days by MTT assay in presence of testosterone; assay type: functional
MCF7 [10] = assay: Cytotoxicity against human placental microsome aromatase expressing human MCF7 cells at 1 to 15 uM by MTT assay in presence of testosterone; assay type: functional, cell-based; details: TDE = time-dependent effect
MCF7 [11] = assay: Cytotoxicity against human placental microsome aromatase expressing human MCF7 cells assessed as reduction in cell viability up to 15 uM after 3 to 6 days by MTT assay in presence of estradiol; assay type: functional, cell-based
MCF7 [12] = assay: Cytotoxicity against human placental microsome aromatase expressing human MCF7 cells assessed as reduction in cell viability at 5 to 15 uM after 2 days by MTT assay in presence of testosterone; assay type: functional, cell-based
MCF7 [13] = assay: Cytotoxicity against human placental microsome aromatase expressing human MCF7 cells assessed as reduction in cell viability up to 15 uM after 3 to 6 days by MTT assay in presence of testosterone; assay type: functional, cell-based
MCF7 [14] = assay: Cytotoxicity against human placental microsome aromatase expressing human MCF7 cells at 1 to 15 uM after 2 to 6 days by LDH assay in presence of testosterone; assay type: functional, cell-based

| SMILES | Activity (MCF7 [1]) | Activity (MCF7 [2]) | Activity (MCF7 [3]) | inhibition at 10 µM (Aromatase [4]) | IC50 (Aromatase [5]) | inhibition at 2 µM (Aromatase [6]) | Activity (MCF7 [7]) | IC50 (Aromatase [8]) | Activity (MCF7 [9]) | Activity (MCF7 [10]) | Activity (MCF7 [11]) | Activity (MCF7 [12]) | Activity (MCF7 [13]) | Activity (MCF7 [14]) |
| --- | --- | --- | --- | --- | --- | --- | --- | --- | --- | --- | --- | --- | --- | --- |
| C=C1C[C@@H]2[C@H](CC[C@]3(C)C(=O)CC[C@@H]23)[C@]2(C)C1=CC(=O)[C@@H]1O[C@@H]12 | tde | Active | Active | 88.6% | 810 nM | 86.8% | Dose-dependent effect | 1180 nM | <25% |  |  |  |  |  |
| C=C1C[C@H]2[C@@H]3CC[C@H](O)[C@@]3(C)CC[C@@H]2[C@@]2(C)C=CC(=O)C=C12 |  |  |  |  |  |  | Dose-dependent effect |  | Active | tde | Active | inactive | Active | inactive |
| C[C@]12C=CC(=O)C=C1[C@@]1(CO1)C[C@@H]1[C@@H]2CC[C@]2(C)C(=O)CC[C@@H]12 |  |  |  | 95.3% | 620 nM | 91.7% | Dose-dependent effect | 730 nM | Active | tde | Active | inactive |  | inactive |
| C[C@]12C=CC(=O)C=C1C(CO)=C[C@@H]1[C@@H]2CC[C@]2(C)C(=O)CC[C@@H]12 |  |  |  | 84% | 670 nM | 81% | Dose-dependent effect | 980 nM | Active | tde | Active | inactive |  | inactive |
